Laboratory results as given in patent publication US10206937B2, “Boronic acid derivatives and therapeutic uses thereof” (Qpex Biopharma, Inc., priority 2014, dated 2019).

Tests used:
[1] = molecular target: purified class A, C and D enzymes (Enterobacter cloacae, UniProt P05364); format: biochemical; settings: purified P99/AmpC of ECL; nitrocefin reporter substrate
[2] = molecular target: T1, purified class A, C and D enzymes (UniProt P0AD64, L31Q/G234S/E235K, species not given); format: biochemical; settings: read-out: Ki (SHV-12, NCF); purified SHV-12; nitrocefin reporter substrate
T1 construct: Ki (SHV-12, NCF); other: purified SHV-12; nitrocefin reporter substrate
T1 sequence (P0AD64 1-286 L31Q/G234S/E235K): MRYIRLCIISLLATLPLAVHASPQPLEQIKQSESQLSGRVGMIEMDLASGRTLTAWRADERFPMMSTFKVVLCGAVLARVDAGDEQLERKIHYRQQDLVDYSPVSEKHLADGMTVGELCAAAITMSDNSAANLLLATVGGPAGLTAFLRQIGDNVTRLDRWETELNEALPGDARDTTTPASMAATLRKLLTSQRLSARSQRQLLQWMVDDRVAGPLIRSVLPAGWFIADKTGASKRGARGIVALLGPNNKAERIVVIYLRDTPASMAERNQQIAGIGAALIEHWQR

[3] = molecular target: T2, purified class A, C and D enzymes (UniProt Q9F663); format: biochemical; settings: read-out: Ki (KPC-2, NCF); purified KPC-2; nitrocefin reporter substrate
T2 construct: rows headed: Ki (KPC-2, NCF); other: purified KPC-2; nitrocefin reporter substrate

[4] = molecular target: T3, purified class A, C and D enzymes (UniProt Q6XEC0); format: biochemical; settings: read-out: Ki (OXA-48, NCF); purified OXA-48; nitrocefin reporter substrate
T3 construct: rows headed: Ki (OXA-48, NCF); other: purified OXA-48; nitrocefin reporter substrate

[5] = molecular target: purified class A, C and D enzymes (Escherichia coli, UniProt Q9L5C7); format: biochemical; settings: purified CTX-M-14; nitrocefin reporter substrate
purified class A, C and D enzymes (Escherichia coli, UniProt Q9L5C7), sequence (Q9L5C7 entry or part of it): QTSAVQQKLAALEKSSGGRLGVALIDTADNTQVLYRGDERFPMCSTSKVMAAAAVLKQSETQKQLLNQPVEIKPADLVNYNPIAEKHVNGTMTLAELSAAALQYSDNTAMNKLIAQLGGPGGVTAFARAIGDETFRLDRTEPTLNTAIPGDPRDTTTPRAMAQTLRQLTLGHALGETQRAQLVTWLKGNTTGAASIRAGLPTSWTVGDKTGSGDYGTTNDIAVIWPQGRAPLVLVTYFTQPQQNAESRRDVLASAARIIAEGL

NDM-1 [6] = molecular target: T4, NDM-1 (Klebsiella pneumoniae, UniProt C7C422); experiment: biochemical
T4 sequence (C7C422 29-270, looked up, species assumed): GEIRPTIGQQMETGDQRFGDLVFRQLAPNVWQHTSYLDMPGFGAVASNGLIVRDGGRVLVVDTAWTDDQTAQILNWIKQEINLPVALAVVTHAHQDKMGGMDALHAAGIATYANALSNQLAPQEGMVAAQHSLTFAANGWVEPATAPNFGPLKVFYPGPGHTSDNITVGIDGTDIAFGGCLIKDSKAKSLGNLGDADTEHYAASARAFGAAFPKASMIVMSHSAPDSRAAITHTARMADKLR

VIM-1 = molecular target: T5, VIM-1 (Pseudomonas aeruginosa, UniProt A0A0F7KYQ8); experiment: biochemical; settings: cleavage of nitrocefin (200 uM) by VIM-1 supernatant
T5 construct: made in house; host or cells: ECM6711 strain carrying pUCP24-VIM-1 plasmid; culture supernatant used unpurified

NDM-1 [7] = molecular target: T4, NDM-1; experiment: Inhibition of purified class B carbapenemase NDM-1 (Ki, imipenem substrate); format: biochemical; settings: NDM-1, substrate imipenem; read-out: Ki NDM-1, Imipenem
[8] = cleavage of imipenem (100 uM) by NDM-1, read-out: Ki, Imipenem

purified class A, C and D enzymes (Enterobacter cloacae, UniProt P05364), sequence (P05364 21-381): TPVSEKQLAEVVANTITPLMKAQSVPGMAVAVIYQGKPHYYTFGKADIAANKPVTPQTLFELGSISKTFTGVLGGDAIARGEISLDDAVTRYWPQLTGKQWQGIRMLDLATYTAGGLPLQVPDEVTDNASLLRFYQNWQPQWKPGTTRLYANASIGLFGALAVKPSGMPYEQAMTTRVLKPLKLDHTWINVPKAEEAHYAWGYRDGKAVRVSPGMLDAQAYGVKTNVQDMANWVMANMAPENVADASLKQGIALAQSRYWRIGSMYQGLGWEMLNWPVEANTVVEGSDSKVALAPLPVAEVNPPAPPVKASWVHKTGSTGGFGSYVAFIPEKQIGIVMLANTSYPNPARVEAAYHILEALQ

SMILES: COc1ccc2c(c1C(=O)O)OB(O)[C@@H](Sc1nnc(SCC(=N)N)s1)C2 [Compound 67, (3R)-3-[[5-(2-amino-2-imino-ethyl)sulfanyl-1,3,4-thiadiazol-2-yl]sulfanyl]-2-hydroxy-7-methoxy-3,4-dihydro-1,2-benzoxaborinine-8-carboxylic acid]
- Ki (P99/AmpC of ECL, NCF) [1]: Y (0.1 μM to 1 μM)
- Ki [2]: < 100 nM
- Ki [3]: 100 to 1000 nM
- Ki [4]: < 100 nM
- Ki (CTX-M-14, NCF) [5]: X (Less than 0.1 μM)
- Ki (NDM-1 [6]; [8]): < 10 nM
- IC50 (VIM-1): < 1000 nM
- Ki (NDM-1 [7]): < 10 nM

SMILES: COc1ccc2c(c1C(=O)O)OB(O)[C@@H](Sc1nncn1C)C2 [Compound 28, (R)-2-hydroxy-7-methoxy-3-(4-methyl-4H-1,2,4-triazol-3-ylthio)-3,4-dihydro-2H-benzo[e][1,2]oxaborinine-8-carboxylic acid]
- Ki (P99/AmpC of ECL, NCF) [1]: Y (0.1 μM to 1 μM)
- Ki [2]: < 100 nM
- Ki [3]: 100 to 1000 nM
- Ki [4]: < 100 nM
- Ki (CTX-M-14, NCF) [5]: X (Less than 0.1 μM)
- Ki (NDM-1 [6]; [8]): < 10 nM
- IC50 (VIM-1): < 1000 nM
- Ki (NDM-1 [7]): < 10 nM

SMILES: CC(=N)S[C@H]1Cc2cccc(C(=O)O)c2OB1O [Compound 10, (R)-2-hydroxy-3-(1-iminoethylthio)-3,4-dihydro-2H-benzo[e][1,2]oxaborinine-8-carboxylic acid]
- Ki [3]: 100 to 1000 nM
- Ki (NDM-1 [6]; [8]): 10 to 100 nM
- IC50 (VIM-1): ≥ 1000 nM
- Ki (NDM-1 [7]): 10 to 100 nM

SMILES: O=C(O)c1cccc2c1OB(O)[C@@H](Sc1ccccc1)C2 [Compound 6, (R)-2-hydroxy-3-(phenylthio)-3,4-dihydro-2H-benzo[e][1,2]oxaborinine-8-carboxylic acid]
- Ki (NDM-1 [6]; [8]): < 10 nM
- IC50 (VIM-1): < 1000 nM
- Ki (NDM-1 [7]): < 10 nM

SMILES: COc1ccc2c(c1C(=O)O)OB(O)[C@@H](SC1CN(S(N)(=O)=O)C1)C2 [Compound 76, (3R)-2-hydroxy-7-methoxy-3-(1-sulfamoylazetidin-3-yl)sulfanyl-3,4-dihydro-1,2-benzoxaborinine-8-carboxylic acid]
- Ki (P99/AmpC of ECL, NCF) [1]: Y (0.1 μM to 1 μM)
- Ki [3]: 100 to 1000 nM
- Ki [4]: < 100 nM
- Ki (CTX-M-14, NCF) [5]: X (Less than 0.1 μM)
- Ki (NDM-1 [6]; [8]): > 100 nM
- IC50 (VIM-1): ≥ 1000 nM
- Ki (NDM-1 [7]): > 100 nM

SMILES: CO[C@H]1Cc2ccc(F)c(C(=O)O)c2OB1O [Compound 19, (R)-7-fluoro-2-hydroxy-3-methoxy-3,4-dihydro-2H-benzo[e][1,2]oxaborinine-8-carboxylic acid]
- Ki [2]: < 100 nM
- Ki [3]: < 100 nM
- Ki [4]: < 100 nM
- Ki (NDM-1 [6]; [8]): < 10 nM
- IC50 (VIM-1): < 1000 nM

SMILES: CSc1ccc2c(c1C(=O)O)OB(O)[C@@H](Sc1nncn1N)C2 [Compound 25, (R)-3-(4-amino-4H-1,2,4-triazol-3-ylthio)-2-hydroxy-7-(methylthio)-3,4-dihydro-2H-benzo[e][1,2]oxaborinine-8-carboxylic acid]
- Ki [2]: < 100 nM
- Ki [3]: 100 to 1000 nM
- Ki [4]: < 100 nM
- Ki (NDM-1 [6]; [8]): < 10 nM
- IC50 (VIM-1): < 1000 nM
- Ki (NDM-1 [7]): < 10 nM

SMILES: CO[C@H]1Cc2cccc(C(=O)O)c2OB1O [Compound 17, (R)-2-hydroxy-3-methoxy-3,4-dihydro-2H-benzo[e][1,2]oxaborinine-8-carboxylic acid]
- Ki [2]: < 100 nM
- Ki [3]: < 100 nM
- Ki [4]: < 100 nM
- Ki (NDM-1 [6]; cleavage of biapenem (100 uM) by NDM-1, read-out: Ki, Biapenem): 10 to 100 nM
- Ki (NDM-1 [6]; [8]): 10 to 100 nM
- Ki (NDM-1 [6]; cleavage of meropenem (100 uM) by NDM-1, read-out: Ki, Meropenem): 10 to 100 nM
- IC50 (VIM-1): < 1000 nM
- Ki (NDM-1 [7]): 10 to 100 nM

SMILES: O=C(O)c1cccc2c1OB(O)[C@@H](Sc1cccnc1)C2 [Compound 8, (R)-2-hydroxy-3-(pyridin-3-ylthio)-3,4-dihydro-2H-benzo[e][1,2]oxaborinine-8-carboxylic acid]
- Ki (NDM-1 [6]; [8]): > 100 nM
- IC50 (VIM-1): < 1000 nM
- Ki (NDM-1 [7]): > 100 nM

SMILES: CS(=O)(=O)Nc1ccc2c(c1C(=O)O)OB(O)[C@@H](Sc1nnc(N)s1)C2 [Compound 120, (3R)-3-[(5-amino-1,3,4-thiadiazol-2-yl)sulfanyl]-2-hydroxy-7-(methanesulfonamido)-3,4-dihydro-1,2-benzoxaborinine-8-carboxylic acid]
- Ki (P99/AmpC of ECL, NCF) [1]: X (Less than 0.1 μM)
- Ki [3]: 100 to 1000 nM
- Ki [4]: < 100 nM
- Ki (CTX-M-14, NCF) [5]: X (Less than 0.1 μM)
- Ki (NDM-1 [6]; [8]): < 10 nM
- IC50 (VIM-1): < 1000 nM
- Ki (NDM-1 [7]): < 10 nM

SMILES: O=C(O)c1c(OCc2nncs2)ccc2c1OB(O)[C@@H](Sc1nncs1)C2 [Compound 93]
- Ki (P99/AmpC of ECL, NCF) [1]: Y (0.1 μM to 1 μM)
- Ki [3]: 100 to 1000 nM
- Ki [4]: < 100 nM
- Ki (CTX-M-14, NCF) [5]: X (Less than 0.1 μM)
- Ki (NDM-1 [6]; [8]): > 100 nM
- IC50 (VIM-1): < 1000 nM
- Ki (NDM-1 [7]): > 100 nM

SMILES: Nn1cnnc1S[C@H]1Cc2ccc(F)c(C(=O)O)c2OB1O [Compound 20, (R)-3-(4-amino-4H-1,2,4-triazol-3-ylthio)-7-fluoro-2-hydroxy-3,4-dihydro-2H-benzo[e][1,2]oxaborinine-8-carboxylic acid]
- Ki [2]: < 100 nM
- Ki [3]: 100 to 1000 nM
- Ki [4]: 100 to 1000 nM
- Ki (NDM-1 [6]; [8]): < 10 nM
- IC50 (VIM-1): ≥ 1000 nM
- Ki (NDM-1 [7]): < 10 nM

SMILES: O=C(O)c1cccc2c1OB(O)[C@@H](Sc1c[nH]nn1)C2 [Compound 12, (R)-3-(1H-1,2,3-triazol-4-ylthio)-2-hydroxy-3,4-dihydro-2H-benzo[e][1,2]oxaborinine-8-carboxylic acid]
- Ki [3]: 100 to 1000 nM
- Ki (NDM-1 [6]; [8]): 10 to 100 nM
- IC50 (VIM-1): < 1000 nM
- Ki (NDM-1 [7]): 10 to 100 nM

SMILES: CSCCOc1ccc2c(c1C(=O)O)OB(O)[C@@H](Sc1nncs1)C2 [Compound 95, (3R)-2-hydroxy-7-(2-methylsulfanylethoxy)-3-(1,3,4-thiadiazol-2-ylsulfanyl)-3,4-dihydro-1,2-benzoxaborinine-8-carboxylic acid]
- Ki (P99/AmpC of ECL, NCF) [1]: Y (0.1 μM to 1 μM)
- Ki [3]: 100 to 1000 nM
- Ki [4]: < 100 nM
- Ki (CTX-M-14, NCF) [5]: X (Less than 0.1 μM)
- Ki (NDM-1 [6]; [8]): 10 to 100 nM
- IC50 (VIM-1): < 1000 nM
- Ki (NDM-1 [7]): 10 to 100 nM

SMILES: COc1ccc2c(c1C(=O)O)OB(O)[C@@H](Sc1nnc(NC(=N)N)s1)C2 [Compound 106, (3R)-3-[(5-guanidino-1,3,4-thiadiazol-2-yl)sulfanyl]-2-hydroxy-7-methoxy-3,4-dihydro-1,2-benzoxaborinine-8-carboxylic acid]
- Ki (P99/AmpC of ECL, NCF) [1]: X (Less than 0.1 μM)
- Ki [3]: 100 to 1000 nM
- Ki [4]: < 100 nM
- Ki (CTX-M-14, NCF) [5]: X (Less than 0.1 μM)
- Ki (NDM-1 [6]; [8]): > 100 nM
- IC50 (VIM-1): < 1000 nM
- Ki (NDM-1 [7]): > 100 nM

SMILES: O=C(O)c1c(OCC2CC2)ccc2c1OB(O)[C@@H](Sc1nncs1)C2 [Compound 92, (3R)-7-(cyclopropylmethoxy)-2-hydroxy-3-(1,3,4-thiadiazol-2-ylsulfanyl)-3,4-dihydro-1,2-benzoxaborinine-8-carboxylic acid]
- Ki (P99/AmpC of ECL, NCF) [1]: Y (0.1 μM to 1 μM)
- Ki [3]: 100 to 1000 nM
- Ki [4]: < 100 nM
- Ki (CTX-M-14, NCF) [5]: X (Less than 0.1 μM)
- Ki (NDM-1 [6]; [8]): 10 to 100 nM
- IC50 (VIM-1): < 1000 nM
- Ki (NDM-1 [7]): 10 to 100 nM

SMILES: Cn1cnnc1S[C@H]1Cc2ccc(F)c(C(=O)O)c2OB1O [Compound 24, (R)-7-fluoro-2-hydroxy-3-(4-methyl-4H-1,2,4-triazol-3-ylthio)-3,4-dihydro-2H-benzo[e][1,2]oxaborinine-8-carboxylic acid]
- Ki [2]: < 100 nM
- Ki [3]: 100 to 1000 nM
- Ki [4]: < 100 nM
- Ki (NDM-1 [6]; [8]): 10 to 100 nM
- IC50 (VIM-1): ≥ 1000 nM
- Ki (NDM-1 [7]): 10 to 100 nM

SMILES: O=C(O)c1cccc2c1OB(O)[C@@H](OCc1ccccc1)C2 [Compound 13, (R)-3-(benzyloxy)-2-hydroxy-3,4-dihydro-2H-benzo[e][1,2]oxaborinine-8-carboxylic acid]
- Ki (NDM-1 [6]; [8]): 10 to 100 nM
- IC50 (VIM-1): < 1000 nM
- Ki (NDM-1 [7]): 10 to 100 nM

SMILES: Cn1nnnc1S[C@H]1Cc2cccc(C(=O)O)c2OB1O [Compound 5, (R)-2-hydroxy-3-(1-methyl-1H-tetrazol-5-ylthio)-3,4-dihydro-2H-benzo[e][1,2]oxaborinine-8-carboxylic acid]
- Ki (NDM-1 [6]; [8]): 10 to 100 nM
- IC50 (VIM-1): ≥ 1000 nM
- Ki (NDM-1 [7]): 10 to 100 nM

SMILES: O=C(O)c1c(OC(F)F)ccc2c1OB(O)[C@@H](Sc1nncs1)C2 [Compound 94, (3R)-7-(difluoromethoxy)-2-hydroxy-3-(1,3,4-thiadiazol-2-ylsulfanyl)-3,4-dihydro-1,2-benzoxaborinine-8-carboxylic acid]
- Ki (P99/AmpC of ECL, NCF) [1]: Z (Greater than 1 μM)
- Ki [3]: 100 to 1000 nM
- Ki [4]: < 100 nM
- Ki (CTX-M-14, NCF) [5]: X (Less than 0.1 μM)
- Ki (NDM-1 [6]; [8]): > 100 nM
- IC50 (VIM-1): < 1000 nM
- Ki (NDM-1 [7]): > 100 nM
